Source: patent US9708314B2, “Heterocyclic amide compound” (NISSAN CHEMICAL INDUSTRIES, LTD., priority 2013, dated 2017)

Columns and labels:
Type in all cases: in vivo
[1] = tested on: Leptochloa chinensis; experiment: Test Example 3: herbicidal effect by application to foliage (Wagner pot, water depth 0.1-0.5 cm); details: Nineteenth Table; application to foliage; application herbicide amount 320 g/ha
In short: (§1)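 Grading uses six bands of herbicidal ratio, from 0 (≤5%, almost no effect) to 5 (≥90%, almost completely withered). Treatment was a stem-and-leaf spray of diluted emulsion at a fixed g/ha on 14-day-old plants; evaluation after three weeks.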

[2] = tested on: Cyperus difformis; experiment: as above; details: Nineteenth Table; application to foliage; application herbicide amount 320 g/ha
In short: as §1

[3] = tested on: Echinochloa crus-galli var. crus-galli; experiment: as above; details: Nineteenth Table; application to foliage; application herbicide amount 320 g/ha
In short: as §1

[4] = tested on: Setaria viridis; experiment: Test Example 4: herbicidal effect by application to foliage (diluvial soil, plastic box); details: for G (Setaria viridis) herbicidal effect grade: foliage application
In short: (§2)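 Greenhouse plants (25° C. to 30° C., 14 d, diluvial soil) receive a foliar spray of water-diluted emulsifiable formulation at defined g/ha. Grading after 3 weeks uses a six-step herbicidal-ratio scale, with 4 covering 70% to <90% and 1 covering 5% to <20%.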

[5] = tested on: Digitaria ciliaris; experiment: as above; details: for F (Digitaria ciliaris) herbicidal effect grade: foliage application
In short: as §2

[6] = tested on: Amaranthus retroflexus; experiment: as above; details: for N (Amaranthus retroflexus) herbicidal effect grade: foliage application
In short: as §2

[7] = tested on: Veronica persica; experiment: as above; details: for R (Veronica persica) herbicidal effect grade: foliage application
In short: as §2

[8] = tested on: Abutilon theophrasti; experiment: as above; details: for M (Abutilon theophrasti) herbicidal effect grade: foliage application
In short: as §2

[9] = tested on: Apera spica-venti.; experiment: as above; details: for L (Apera spica-venti.) herbicidal effect grade: foliage application
In short: as §2

[10] = tested on: Stellaria media; experiment: as above; details: for P (Stellaria media) herbicidal effect grade: foliage application
In short: as §2

[11] = tested on: Chenopodium album; experiment: as above; details: for O (Chenopodium album) herbicidal effect grade: foliage application
In short: as §2

[12] = tested on: Alopecurus myosuroides; experiment: as above; details: for J (Alopecurus myosuroides) herbicidal effect grade: foliage application
In short: as §2

[13] = application to foliage, application herbicide amount 320 g/ha
[14] = Application herbicide amount 320 g/ha

**Q.** What does the source list for Cn1nnnc1NC(=O)c1ccc(C(F)(F)F)n2c(CSCC(F)(F)F)nnc12 [2-030]?
**A.** D (herbicidal effect grade) [1]: 5 (Herbicidal ratio of 90% or more (almost completely withered)); E (herbicidal effect grade) [2]: 4 (Herbicidal ratio of 70% or more and less than 90%); H (herbicidal effect grade) [3]: 4 (Herbicidal ratio of 70% or more and less than 90%); G (Setaria viridis) herbicidal effect grade ([4]; 320 g/ha): 5 (Herbicidal ratio of 90% or more (almost completely withered)); F (Digitaria ciliaris) herbicidal effect grade ([5]; 320 g/ha): 5 (Herbicidal ratio of 90% or more (almost completely withered)); N (Amaranthus retroflexus) herbicidal effect grade ([6]; 320 g/ha): 5 (Herbicidal ratio of 90% or more (almost completely withered)); R (Veronica persica) herbicidal effect grade ([7]; 320 g/ha): 5 (Herbicidal ratio of 90% or more (almost completely withered)); M (Abutilon theophrasti) herbicidal effect grade ([8]; 320 g/ha): 5 (Herbicidal ratio of 90% or more (almost completely withered)); L (Apera spica-venti.) herbicidal effect grade ([9]; 320 g/ha): 5 (Herbicidal ratio of 90% or more (almost completely withered)); P (Stellaria media) herbicidal effect grade ([10]; 320 g/ha): 5 (Herbicidal ratio of 90% or more (almost completely withered)); O (Chenopodium album) herbicidal effect grade ([11]; 320 g/ha): 5 (Herbicidal ratio of 90% or more (almost completely withered)); J (Alopecurus myosuroides) herbicidal effect grade ([12]; 320 g/ha): 3 (Herbicidal ratio of 40% or more and less than 70%)

**Q.** Which “D (herbicidal effect grade)” value [1] does the source give for CCCc1nnc2c(C(=O)Nc3nnnn3C)ccc(C(F)(F)F)n12 [2-019] here?
**A.** The value was 5 (Herbicidal ratio of 90% or more (almost completely withered)).

**Q.** And the “E (herbicidal effect grade)” value [2]?
**A.** Its value is 5 (Herbicidal ratio of 90% or more (almost completely withered)).

**Q.** What about the “H (herbicidal effect grade)” value [3] of the same compound?
**A.** The value was 5 (Herbicidal ratio of 90% or more (almost completely withered)).

**Q.** And the “G: herbicidal effect on Setaria viridis” value [4, 13]?
**A.** The value was 5 (Herbicidal ratio of 90% or more (almost completely withered)).

**Q.** And the “F: herbicidal effect on Digitaria ciliaris” value [5, 13]?
**A.** The value was 5 (Herbicidal ratio of 90% or more (almost completely withered)).

**Q.** And the “N: herbicidal effect on Amaranthus retroflexus” value [6, 13]?
**A.** Its value is 5 (Herbicidal ratio of 90% or more (almost completely withered)).

**Q.** And the “R: herbicidal effect on Veronica persica” value [7, 13]?
**A.** The value was 5 (Herbicidal ratio of 90% or more (almost completely withered)).

**Q.** And the “M: herbicidal effect on Abutilon theophrasti” value [8, 13]?
**A.** The value was 5 (Herbicidal ratio of 90% or more (almost completely withered)).

**Q.** And the “L: herbicidal effect on Apera spica-venti.” value [9, 13]?
**A.** Its value is 4 (Herbicidal ratio of 70% or more and less than 90%).

**Q.** And the “P: herbicidal effect on Stellaria media” value [10, 13]?
**A.** The value was 5 (Herbicidal ratio of 90% or more (almost completely withered)).

**Q.** What about the “O: herbicidal effect on Chenopodium album” value [11, 13] of the same compound?
**A.** Its value is 5 (Herbicidal ratio of 90% or more (almost completely withered)).

**Q.** What about the “J: herbicidal effect on Alopecurus myosuroides” value [12, 13] of the same compound?
**A.** The value was 2 (Herbicidal ratio of 20% or more and less than 40%).

**Q.** Which results are given for O=C(Nc1nnco1)c1ccc(C(F)(F)F)n2c(-c3ccc(Cl)nc3)nnc12 [1-150]?
**A.** D (herbicidal effect grade) [1]: 5 (Herbicidal ratio of 90% or more (almost completely withered)); E (herbicidal effect grade) [2]: 5 (Herbicidal ratio of 90% or more (almost completely withered)); H (herbicidal effect grade) [3]: 5 (Herbicidal ratio of 90% or more (almost completely withered)); G (Setaria viridis) herbicidal effect grade [4, 14]: 3 (Herbicidal ratio of 40% or more and less than 70%); F (Digitaria ciliaris) herbicidal effect grade [5, 14]: 4 (Herbicidal ratio of 70% or more and less than 90%); N (Amaranthus retroflexus) herbicidal effect grade [6, 14]: 5 (Herbicidal ratio of 90% or more (almost completely withered)); R (Veronica persica) herbicidal effect grade [7, 14]: 5 (Herbicidal ratio of 90% or more (almost completely withered)); M (Abutilon theophrasti) herbicidal effect grade [8, 14]: 3 (Herbicidal ratio of 40% or more and less than 70%); L (Apera spica-venti.) herbicidal effect grade [9, 14]: 3 (Herbicidal ratio of 40% or more and less than 70%); P (Stellaria media) herbicidal effect grade [10, 14]: 5 (Herbicidal ratio of 90% or more (almost completely withered)); O (Chenopodium album) herbicidal effect grade [11, 14]: 5 (Herbicidal ratio of 90% or more (almost completely withered)); J (Alopecurus myosuroides) herbicidal effect grade [12, 14]: 1 (Herbicidal ratio of 5% or more and less than 20%)

**Q.** With Cc1nnc(NC(=O)c2ccc(C(F)(F)F)n3c(NCC(F)(F)F)nnc23)o1 [1-131] as the compound, how does the “D (herbicidal effect grade)” value [1] read?
**A.** Its value is 4 (Herbicidal ratio of 70% or more and less than 90%).

**Q.** And the “E (herbicidal effect grade)” value [2]?
**A.** The value was 3 (Herbicidal ratio of 40% or more and less than 70%).

**Q.** What about the “H (herbicidal effect grade)” value [3] of the same compound?
**A.** Its value is 4 (Herbicidal ratio of 70% or more and less than 90%).

**Q.** And the “G (Setaria viridis) herbicidal effect grade” value [4, 14]?
**A.** Its value is 3 (Herbicidal ratio of 40% or more and less than 70%).

**Q.** And the “F (Digitaria ciliaris) herbicidal effect grade” value [5, 14]?
**A.** The value was 4 (Herbicidal ratio of 70% or more and less than 90%).

**Q.** And the “N (Amaranthus retroflexus) herbicidal effect grade” value [6, 14]?
**A.** The value was 3 (Herbicidal ratio of 40% or more and less than 70%).

**Q.** And the “R (Veronica persica) herbicidal effect grade” value [7, 14]?
**A.** The value was 3 (Herbicidal ratio of 40% or more and less than 70%).

**Q.** What about the “M (Abutilon theophrasti) herbicidal effect grade” value [8, 14] of the same compound?
**A.** The value was 3 (Herbicidal ratio of 40% or more and less than 70%).

**Q.** What about the “L (Apera spica-venti.) herbicidal effect grade” value [9, 14] of the same compound?
**A.** Its value is 0 (Herbicidal ratio of 5% or less (almost no effect)).

**Q.** And the “P (Stellaria media) herbicidal effect grade” value [10, 14]?
**A.** Its value is 3 (Herbicidal ratio of 40% or more and less than 70%).

**Q.** And the “O (Chenopodium album) herbicidal effect grade” value [11, 14]?
**A.** Its value is 5 (Herbicidal ratio of 90% or more (almost completely withered)).

**Q.** And the “J (Alopecurus myosuroides) herbicidal effect grade” value [12, 14]?
**A.** The value was 0 (Herbicidal ratio of 5% or less (almost no effect)).

**Q.** How did the “D (herbicidal effect grade)” value [1] turn out when C#CCN(C)c1nnc2c(C(=O)Nc3nnc(C)o3)ccc(C(F)(F)F)n12 [1-152] was run?
**A.** Its value is 5 (Herbicidal ratio of 90% or more (almost completely withered)).

**Q.** What about the “E (herbicidal effect grade)” value [2] of the same compound?
**A.** Its value is 4 (Herbicidal ratio of 70% or more and less than 90%).

**Q.** What about the “H (herbicidal effect grade)” value [3] of the same compound?
**A.** The value was 5 (Herbicidal ratio of 90% or more (almost completely withered)).

**Q.** What about the “G (Setaria viridis) herbicidal effect grade” value [4, 14] of the same compound?
**A.** Its value is 3 (Herbicidal ratio of 40% or more and less than 70%).

**Q.** And the “F (Digitaria ciliaris) herbicidal effect grade” value [5, 14]?
**A.** The value was 4 (Herbicidal ratio of 70% or more and less than 90%).

**Q.** And the “N (Amaranthus retroflexus) herbicidal effect grade” value [6, 14]?
**A.** The value was 4 (Herbicidal ratio of 70% or more and less than 90%).

**Q.** What about the “R (Veronica persica) herbicidal effect grade” value [7, 14] of the same compound?
**A.** The value was 3 (Herbicidal ratio of 40% or more and less than 70%).

**Q.** What about the “M (Abutilon theophrasti) herbicidal effect grade” value [8, 14] of the same compound?
**A.** The value was 3 (Herbicidal ratio of 40% or more and less than 70%).

**Q.** What about the “L (Apera spica-venti.) herbicidal effect grade” value [9, 14] of the same compound?
**A.** Its value is 1 (Herbicidal ratio of 5% or more and less than 20%).

**Q.** And the “P (Stellaria media) herbicidal effect grade” value [10, 14]?
**A.** The value was 4 (Herbicidal ratio of 70% or more and less than 90%).

**Q.** What about the “O (Chenopodium album) herbicidal effect grade” value [11, 14] of the same compound?
**A.** Its value is 5 (Herbicidal ratio of 90% or more (almost completely withered)).

**Q.** And the “J (Alopecurus myosuroides) herbicidal effect grade” value [12, 14]?
**A.** The value was 0 (Herbicidal ratio of 5% or less (almost no effect)).

**Q.** What does the source list for CSCc1nnc2c(C(=O)Nc3nnnn3C)ccc(C(F)(F)F)n12 [2-029]?
**A.** D (herbicidal effect grade) [1]: 5 (Herbicidal ratio of 90% or more (almost completely withered)); E (herbicidal effect grade) [2]: 5 (Herbicidal ratio of 90% or more (almost completely withered)); H (herbicidal effect grade) [3]: 5 (Herbicidal ratio of 90% or more (almost completely withered)); G (Setaria viridis) herbicidal effect grade ([4]; 320 g/ha): 5 (Herbicidal ratio of 90% or more (almost completely withered)); F (Digitaria ciliaris) herbicidal effect grade ([5]; 320 g/ha): 5 (Herbicidal ratio of 90% or more (almost completely withered)); N (Amaranthus retroflexus) herbicidal effect grade ([6]; 320 g/ha): 5 (Herbicidal ratio of 90% or more (almost completely withered)); R (Veronica persica) herbicidal effect grade ([7]; 320 g/ha): 5 (Herbicidal ratio of 90% or more (almost completely withered)); M (Abutilon theophrasti) herbicidal effect grade ([8]; 320 g/ha): 5 (Herbicidal ratio of 90% or more (almost completely withered)); L (Apera spica-venti.) herbicidal effect grade ([9]; 320 g/ha): 5 (Herbicidal ratio of 90% or more (almost completely withered)); P (Stellaria media) herbicidal effect grade ([10]; 320 g/ha): 5 (Herbicidal ratio of 90% or more (almost completely withered)); O (Chenopodium album) herbicidal effect grade ([11]; 320 g/ha): 5 (Herbicidal ratio of 90% or more (almost completely withered)); J (Alopecurus myosuroides) herbicidal effect grade ([12]; 320 g/ha): 5 (Herbicidal ratio of 90% or more (almost completely withered))
